Data published in patent publication US11364242B2, “Treatment agents for inhibiting HIV and cancer in HIV infected patients” (UNIVERSITY OF MARYLAND, BALTIMORE, priority 2015, dated 2022).

Legend:
[1] = tested on: multidrug-resistant HIV molecular clone NL4329129-2; assay: PBL infectivity assay, multidrug resistant clone; format: cell-based; settings: Human immunodeficiency virus 1, 168 h
Description: FIG. 2A-2B are bar graphs that illustrate how INK128 inhibits replication of multidrug resistant HIV molecular clone NL4329129-2. Activated PBLs were infected for 2 hours using a MOI of 0.001. Infected cells were cultured in IL-2 medium and the indicated concentrations of INK128. On day 7, virus production was measured by p24 ELISA in the culture supernatants (FIG. 2A), and cell viability was measured by MTT (FIG. 2B) according to an embodiment.
PBLs were isolated from buffy coats of HIV seronegative donors (New York Blood Center). The laboratory-adapted strains HIV BaL and HIV HXB2; primary isolates HIV 92BR020, 92UG031, 93BR029, and 93UG082; and multidrug resistant molecular clone NL4329129-2 were obtained from the NIH AIDS Repository. […] Proliferation of PBLs was measured by the MTT kit (Roche), following the manufacturer's directions. […]
PBLs were separated from buffy coats by density centrifugation over Ficoll-Hypaque (Sigma™), and activated by culture in the presence of 1 μg/mL anti-human CD3 antibody (clone x35, Fisher Scientific™) and 2 μg/mL anti-human CD28 antibody (Clone CD28.6, eBioscience™) for 3 days. […] On day 7, viral replication was measured by p24 ELISA (Coulter) in culture supernatants and cell viability was measured by MTT assays.
EC50 values were determined by variable slope nonlinear regression analysis. […]

X4 HIV (HXB2) = assay: Real-time PCR of early reverse transcription products and integrated HIV DNA in infected PBLs; format: cell-based; settings: PBLs from two donors
Description: Activated PBLs were infected with R5 and X4 HIV strains using a MOI of 0.01. Infected cells were cultured in the presence of IL-2 and different concentrations of INK128. Cell aliquots were collected at 16 and 72 hours for analyses of early products of reverse transcription and of integration, respectively, by real time PCR. Detection of early products of reverse transcription was done with primers specific for the R/U5 region (60). For detection of integrated HIV DNA, a real-time nested Alu-HIV PCR assay was used as previously described (61, 62), with the modifications described herein.
DNA was isolated using Miniblood kit (Qiagen™). PCR amplification was performed using Quantitect SYBR Green™ PCR Kit (Qiagen™) in a LightCycler™ (Biorad™). Detection of early products of reverse transcription was done in reactions containing 100 ng of DNA and the primer pair 5′-[…]-3′ (SEQ ID NO. 1) and 5′-[…]-3′ (SEQ ID NO. 2) (R/U5 region) (60). […] Amplified products were analyzed by denaturation/renaturation to verify the specific Tm. The PCR cycle at which the signal entered the exponential range was used for quantification, and HIV copy numbers were corrected for those of α-tubulin. […] As a standard curve for relative quantification of integrated DNA, the Alu-gag was first run using serial dilutions of DNA isolated from HIV infected PBLs (diluted in HIV-negative DNA).

[2] = tested on: chronically HIV-infected U1 cell line; assay: HIV activation in chronically infected U1 cells, p24 ELISA; format: cell-based; settings: INK128 <10 nM, day 3
Description: FIG. 5A-5C are bar graphs that illustrate INK128's inhibition of HIV activation in chronically infected cells. Latently HIV infected U1 cells were cultured in the presence of various concentrations of INK128 for 1 hour. Cultures were then untreated (FIG. 5A), or treated with HIV inducers PMA (FIG. 5B) and Tat protein (FIG. 5C). HIV production was measured by p24 ELISA in the culture supernatants on day 3 according to an embodiment.
The effects of INK128 on activation of HIV in the chronically HIV-infected U1 cell line were examined. The U1 cell line carries two copies of the HIV provirus per cell (33). Under basal conditions, U1 cells express low levels of HIV, but HIV expression is enhanced by stimulation with the phorbol ester PMA or by exogenous addition of Tat (34, 35). U1 cells were cultured in the presence of INK128 in the absence and presence of 10 nM PMA or 1 μg/mL Tat. […] As expected, unstimulated U1 cells produced low levels of HIV p24, but production was increased by addition of PMA or Tat.

CXCR4 = assay: Flow cytometry quantitation of surface receptor on PBLs; settings: IL-2, 7 days, three donors
CD4 = assay: as above; settings: IL-2, 7 days, three donors
HIV BaL = HIV BaL infection of NSG mice reconstituted with human PBLs

For `CC(C)n1nc(-c2ccc3oc(N)nc3c2)c2c(N)ncnc21` [INK128, 5-(4-amino-1-propan-2-ylpyrazolo[3,4-d]pyrimidin-3-yl)-1,3-benzoxazol-2-amine], the EC50 [1] was 10.9 nM, the R/U5 transcripts (X4 HIV (HXB2); 16 hours) was “did not decrease” and the integrated provirus (X4 HIV (HXB2); 72 hours) was “did not decrease”. The p24 production ([2]; U1 cells treated with 10 nM PMA) was “inhibited p24 production”, the p24 production ([2]; U1 cells treated with 1 μg/mL Tat) was “inhibited p24 production” and the p24 production ([2]; untreated U1 cells) was “inhibited p24 production”. For the same compound, the “CXCR4 levels (percentage or density)” value (CXCR4) was “did not change”, the CD4 receptor levels (CD4) was “did not impact” and the “mean CD4/CD8 cell ratio” value (HIV BaL; day 14, 1 mg/kg/day i.p.) was 0.11. For the same compound, the “mean CD4/CD8 cell ratio” value (HIV BaL; day 14, 3 mg/kg/day i.p.) was 0.18 and the “mean CD4/CD8 cell ratio” value (HIV BaL; day 14, 5 mg/kg/day i.p.) was 0.76.
